Assay results published in patent publication US11000708B2 (priority 2015, dated 2021).
Several values for one entry are separate records, joined by “and”; a condition that tells them apart may be missing. Identical values can stand only once. Like-named read-outs stand apart in the source and are kept apart here.

Key:
[1] = test system: clinically-separated Mycobacterium tuberculosis strains; type: cell-based
[2] = test system: 518 clinically-separated Mycobacterium tuberculosis strains; conditions: cited from earlier work
[3] = 518 clinically-separated strains
[4] = among 321 strains resistant to one or more first-line drugs

For `CO[C@H]1/C=C/O[C@@]2(C)Oc3c(C)c(O)c4c(O)c(c(/C=N/N5CCN(C)CC5)c(O)c4c3C2=O)NC(=O)/C(C)=C\C=C\[C@H](C)[C@H](O)[C@@H](C)[C@@H](O)[C@@H](C)[C@H](OC(C)=O)[C@@H]1C` [Rifampicin, rifampicin], the “growth of bacterial colonies on drug-containing culture medium” value (“growth of bacterial colonies” below) ([1]; rifampicin 50 μg/ml, Table 5, per clinical strain) was 4+ (positive (4+) if the bacterial colonies closely grow on the slant face of the culture medium and account for ¾ or more of the area of the slant face) and 3+ (positive (3+) if the bacterial colonies closely grow on the slant face of the culture medium or are partially fused and account for ½ or more of the slant face and ¾ or less of the slant face) and 2+ (positive (2+) if the bacterial colonies dispersedly grow on the slant face of the culture medium and account for ¼ or more of the slant face and ½ or less of the slant face) and the “growth of bacterial colonies” value ([1]; rifampicin 50 μg/ml, Table 6, isoniazid- and rifampicin-resistant clinical strains) was 4+ (positive (4+) if the bacterial colonies closely grow on the slant face of the culture medium and account for ¾ or more of the area of the slant face) and 3+ (positive (3+) if the bacterial colonies closely grow on the slant face of the culture medium or are partially fused and account for ½ or more of the slant face and ¾ or less of the slant face) and 2+ (positive (2+) if the bacterial colonies dispersedly grow on the slant face of the culture medium and account for ¼ or more of the slant face and ½ or less of the slant face).
For `[H]/N=C(/N)N[C@H]1[C@H](O)[C@@H](O)[C@H](O[C@@H]2O[C@@H](C)[C@](O)(C=O)[C@H]2O[C@@H]2O[C@@H](CO)[C@H](O)[C@@H](O)[C@@H]2NC)[C@@H](N/C(N)=N\[H])[C@@H]1O` [streptomycin], the “resistance rate of Mycobacterium tuberculosis” value (“resistance rate” below) [2, 3] is listed as 45.95%.
For `NNC(=O)c1ccncc1` [Isoniazid, isoniazid], the “growth of bacterial colonies” value ([1]; isoniazid 0.2 μg/ml, Table 4, per clinical strain) is given as 4+ (positive (4+) if the bacterial colonies closely grow on the slant face of the culture medium and account for ¾ or more of the area of the slant face) and 3+ (positive (3+) if the bacterial colonies closely grow on the slant face of the culture medium or are partially fused and account for ½ or more of the slant face and ¾ or less of the slant face) and the “resistance rate” value [2, 3] is given as 53.67%.
With carrimycin the “number of strains sensitive to 1 μg/ml of carrimycin” value ([1]; 1 μg/ml) was 54 strains, the “share of total effective bacteria sensitive to 1 μg/ml of carrimycin” value ([1]; 1 μg/ml) was 31.39% and the “number of strains with activity superior to that of isoniazid and that of rifampicin” value ([1]; 20 μg/ml carrimycin vs 1 μg/ml isoniazid and 250 μg/ml rifampicin) was 23 strains. For the same molecule, the “number of strains with activity superior to that of isoniazid” value ([1]; 20 μg/ml carrimycin, isoniazid-resistant clinical strains) was 37 strains, the “number of strains with activity superior to that of rifampicin” value ([1]; 20 μg/ml carrimycin, rifampicin-resistant clinical strains) was 39 strains and the total effective rate ([1]; 172 of 240 clinically-separated strains) was 71.66%. For the same molecule, the “share of effective strains with activity superior to isoniazid” value ([1]; of 172 effective strains) was 21.5%, the “share of effective strains with activity superior to isoniazid and rifampicin” value ([1]; of 172 effective strains) was 13.4% and the “share of effective strains with activity superior to rifampicin” value ([1]; of 172 effective strains) was 22.7%. The “share of effective strains with sensitivity equivalent to H37Rv” value ([1]; of 172 effective strains) was 53.48%, the “number of strains with sensitivity equivalent to that of quality control strains H37Rv” value ([1]; of 172 sensitive strains) was 92 strains and the “number of strains with sensitivity obviously higher than that of quality control strains H37Rv” value ([1]; of 172 sensitive strains) was 80 strains. The “number of strains sensitive to carrimycin” value ([1]; of 240 clinically-separated strains, 1 μg/ml or 20 μg/ml) was 172 strains.
For `NCC[C@H](O)C(=O)N[C@@H]1C[C@H](N)[C@@H](O[C@H]2O[C@H](CN)[C@@H](O)[C@H](O)[C@H]2O)[C@H](O)[C@H]1O[C@H]1O[C@H](CO)[C@@H](O)[C@H](N)[C@H]1O` [amikacin], the “resistance rate” value [2, 3] is given as 15.83% and the “resistance rate” value [2, 4] is given as 25.55%.
For capreomycin, the “resistance rate” value [2, 3] is given as 21.81% and the “resistance rate” value [2, 4] is given as 33.02%.
